Laboratory results published in patent US11608325B2, “Polycrystalline form of dehydrophenylahistin-like compound, and manufacturing and purification method and application thereof” (Shenzhen Huahong Marine Biomedicine Co., Ltd., priority 2016, dated 2023).
“Also recorded” adds a separate entry of the source.

Tests used:
Assay type in all cases: physicochemical
[1] = Stability study of plinabulin polymorphs
[2] = Hygroscopicity test (Chinese Pharmacopoeia 2015 Volume IV, general rule 9103); conditions: for Weight gain: Left for 24 h
Experimental: The test was conducted according to the general rule 9103 of guiding principle for drug hygroscopicity test in Chinese Pharmacopoeia 2015 edition Volume IV, and the results are shown in Table 6.

[3] = High-temperature stress test (60° C.); conditions: for stability under high-temperature condition: stress testing, high temperature (60° C.); for Appearance / Content (HPLC) (calculated as an anhydride) / Relevant substance (HPLC) Impurity D / Relevant substance (HPLC) Total impurities / Relevant substance (HPLC) Impurity A: High-temperature test/60° C.; for Relevant substance (HPLC) Impurity A: LOQ (0.035%)
Experimental: (§1) In accordance with the general rule 9001 of guiding principles for stability tests of APIs and preparations in the Chinese Pharmacopoeia 2015 edition Volume IV, stress testing of the δ-crystalline form of (3Z,6Z)-3-benzylidene-6-[(5-tert-butyl-1H-imidazol-4-yl)deuteromethylene]piperazine-2,5-dione was conducted under high temperature, high humidity and illumination conditions, the sample batch number was 20150401, and the results are shown in Tables 7, 8 and 9 below.

[4] = Transformation of other crystalline forms under humidity or in water; conditions: after being stirred in water for 3 hours
[5] = High-humidity stress test (25° C., 90% RH); conditions: for Appearance / Content (HPLC) (calculated as an anhydride) / Relevant substance Impurity D / Relevant substance Total impurities / Relevant substance Impurity A: High-humidity test/25° C., 90% RH; for Relevant substance Impurity A: LOQ (0.035%); for stability / transformation under high-humidity condition: stress testing, high humidity (25° C., 90% RH), monohydrate
Experimental: as §1

[6] = Illumination stress test (4500 Lx±500 Lx); conditions: for Appearance / Content (HPLC) (calculated as an anhydride) / Relevant substance (HPLC) Impurity D / Relevant substance (HPLC) Total impurities / Relevant substance (HPLC) Impurity A: Illumination test/4500Lx ± 500Lx; for Relevant substance (HPLC) Impurity A: LOQ (0.035%); for stability under illumination condition: stress testing, illumination (4500 Lx±500 Lx), monohydrate
Experimental: as §1

[7] = 6-month accelerated stability test (40° C.±2° C./75%±5% RH)
Experimental: Meanwhile, a 6-month accelerated stability test was conducted on the δ-crystalline form of (3Z,6Z)-3-benzylidene-6-[(5-tert-butyl-1H-imidazol-4-yl)deuteromethylene]piperazine-2,5-dione. The sample batch number was 20150404. Factory packaging was simulated. The test conditions were 40° C.±2° C./75%±5% RH.

[8] = listed as 20150401, monohydrate
[9] = listed as 20150402, monohydrate
[10] = listed as 20150403, monohydrate
[11] = listed as (3Z,6Z)-3-benzylidene-6-[(5-tert-butyl-1H-imidazol-4-yl)deuteromethylene]piperaz

CC(C)(C)c1[nH]cnc1/C=c1\[nH]c(=O)/c(=C/c2ccccc2)[nH]c1=O [a-crystalline form, (3Z,6Z)-3-benzylidene-6-[(5-tert-butyl-1H-imidazol-4-yl)methylene]piperazine-2,5-dione]
Hygroscopicity ([1]; plinabulin crystalline forms): certain hygroscopicity
transformation of crystalline form ([1]; under high humidity condition): easily transformed into a d-crystalline form

CC(C)(C)c1[nH]cnc1/C=c1\[nH]c(=O)/c(=C/c2ccccc2)[nH]c1=O.O [d-crystalline form, (3Z,6Z)-3-benzylidene-6-[(5-tert-butyl-1H-imidazol-4-yl)methylene]piperazine-2,5-dione monohydrate]
stability [1]: high stability
molecular stability ([1]; during preparation and storage processes): excellent molecular stability
stability as solid API in stress testing ([1]; high temperature, high humidity and illumination conditions): remain stable

[2H]/C(c1nc[nH]c1C(C)(C)C)=c1/[nH]c(=O)/c(=C/c2ccccc2)[nH]c1=O [β-crystalline form, (3Z,6Z)-3-benzylidene-6-[(5-tert-butyl-1H-imidazol-4-yl)deuteromethylene]piperazine-2,5-dione]
Hygroscopicity [2]: no hygroscopicity
stability under high-temperature condition [3]: not stable enough
transformation of crystalline form [4]: most of which may transform into δ-crystalline form

[2H]/C(c1nc[nH]c1C(C)(C)C)=c1/[nH]c(=O)/c(=C/c2ccccc2)[nH]c1=O [γ-crystalline form, (3Z,6Z)-3-benzylidene-6-[(5-tert-butyl-1H-imidazol-4-yl)deuteromethylene]piperazine-2,5-dione]
Hygroscopicity [2]: no hygroscopicity
stability under high-temperature condition [3]: not stable enough
transformation of crystalline form [4]: most of which may transform into δ-crystalline form

O.[2H]/C(c1nc[nH]c1C(C)(C)C)=c1/[nH]c(=O)/c(=C/c2ccccc2)[nH]c1=O [δ-crystalline form, (3Z,6Z)-3-benzylidene-6-[(5-tert-butyl-1H-imidazol-4-yl)deuteromethylene]piperazine-2,5-dione monohydrate]
Weight gain [2, 8]: 0.20 mg
Weight gain [2, 9]: 0.24 mg
Weight gain [2, 10]: 0.20 mg
weight gain percentage ([2]; bottle opened for 24 hours): less than 0.2%
Hygroscopicity [2, 8]: none
Hygroscopicity [2, 9]: none
Hygroscopicity [2, 10]: none
Hygroscopicity ([2]; monohydrate): basically not hygroscopic
Appearance ([3]; day 0): Yellow powder
Content (HPLC) (calculated as an anhydride) ([3]; day 0): 99.7%
Relevant substance (HPLC) Impurity D ([3]; day 0): Impurity D: 0.06%
Relevant substance (HPLC) Total impurities ([3]; day 0): 0.07%
Relevant substance (HPLC) Impurity A ([3]; day 0): Impurity A: <LOQ
Appearance ([3]; day 5): Yellow powder
Content (HPLC) (calculated as an anhydride) ([3]; day 5): 99.4%
Relevant substance (HPLC) Impurity D ([3]; day 5): Impurity D: 0.06%
Relevant substance (HPLC) Total impurities ([3]; day 5): 0.07%
Relevant substance (HPLC) Impurity A ([3]; day 5): Impurity A: <LOQ
Appearance ([3]; day 10): Yellow powder
Content (HPLC) (calculated as an anhydride) ([3]; day 10): 99.8%
Relevant substance (HPLC) Impurity D ([3]; day 10): Impurity D: 0.06%
Relevant substance (HPLC) Total impurities ([3]; day 10): 0.07%
Relevant substance (HPLC) Impurity A ([3]; day 10): Impurity A: <LOQ
stability under high-temperature condition ([3]; listed as (3Z,6Z)-3-benzylidene-6-[(5-tert-butyl-1H-imidazol-4-yl)deuteromethylene]piperaz, monohydrate): remain stable
stability under high-temperature condition ([3]; monohydrate): very stable; also recorded: relatively stable
Appearance ([5]; day 0): Yellow powder
Content (HPLC) (calculated as an anhydride) ([5]; day 0): 99.7%
Relevant substance Impurity D ([5]; day 0): Impurity D: 0.06%
Relevant substance Total impurities ([5]; day 0): 0.07%
Relevant substance Impurity A ([5]; day 0): Impurity A: <LOQ
Appearance ([5]; day 5): Yellow powder
Content (HPLC) (calculated as an anhydride) ([5]; day 5): 99.5%
Relevant substance Impurity D ([5]; day 5): Impurity D: 0.06%
Relevant substance Total impurities ([5]; day 5): 0.07%
Relevant substance Impurity A ([5]; day 5): Impurity A: <LOQ
Appearance ([5]; day 10): Yellow powder
Content (HPLC) (calculated as an anhydride) ([5]; day 10): 99.6%
Relevant substance Impurity D ([5]; day 10): Impurity D: 0.06%
Relevant substance Total impurities ([5]; day 10): 0.07%
Relevant substance Impurity A ([5]; day 10): Impurity A: <LOQ
stability / transformation under high-humidity condition [5, 11]: remain stable
stability / transformation under high-humidity condition [5]: very stable; also recorded: relatively stable
Appearance ([6]; day 0): Yellow powder
Content (HPLC) (calculated as an anhydride) ([6]; day 0): 99.7%
Relevant substance (HPLC) Impurity D ([6]; day 0): Impurity D: 0.06%
Relevant substance (HPLC) Total impurities ([6]; day 0): 0.07%
Relevant substance (HPLC) Impurity A ([6]; day 0): Impurity A: <LOQ
Appearance ([6]; day 5): Yellow powder
Content (HPLC) (calculated as an anhydride) ([6]; day 5): 100.1%
Relevant substance (HPLC) Impurity D ([6]; day 5): Impurity D: 0.05%
Relevant substance (HPLC) Total impurities ([6]; day 5): 0.05%
Relevant substance (HPLC) Impurity A ([6]; day 5): Impurity A: <LOQ
Appearance ([6]; day 10): Yellow powder
Content (HPLC) (calculated as an anhydride) ([6]; day 10): 99.8%
Relevant substance (HPLC) Impurity D ([6]; day 10): Impurity D: 0.05%
Relevant substance (HPLC) Total impurities ([6]; day 10): 0.05%
Relevant substance (HPLC) Impurity A ([6]; day 10): Impurity A: <LOQ
stability under illumination condition [6, 11]: remain stable
stability under illumination condition [6]: very stable; also recorded: relatively stable
stability in accelerated stability test ([7]; 6 months, monohydrate): very stable; also recorded: excellent stability
Content (HPLC) (calculated as an anhydride) ([7]; month 0): 99.5%
Relevant substance (HPLC) Impurity D ([7]; month 0): 0.06%
Relevant substance (HPLC) Other single impurity ([7]; month 0): Not detected
Relevant substance (HPLC) Total impurities ([7]; month 0): 0.07%
Relevant substance (HPLC) Impurity A ([7]; month 0, LOQ (0.035%)): <LOQ
Content (HPLC) (calculated as an anhydride) ([7]; month 1): 99.6%
Relevant substance (HPLC) Impurity D ([7]; month 1): 0.06%
Relevant substance (HPLC) Other single impurity ([7]; month 1): Not detected
Relevant substance (HPLC) Total impurities ([7]; month 1): 0.08%
Relevant substance (HPLC) Impurity A ([7]; month 1, LOQ (0.035%)): <LOQ
Content (HPLC) (calculated as an anhydride) ([7]; month 2): 100.2%
Relevant substance (HPLC) Impurity D ([7]; month 2): 0.06%
Relevant substance (HPLC) Other single impurity ([7]; month 2): Not detected
Relevant substance (HPLC) Total impurities ([7]; month 2): 0.08%
Relevant substance (HPLC) Impurity A ([7]; month 2, LOQ (0.035%)): <LOQ
Content (HPLC) (calculated as an anhydride) ([7]; month 3): 99.8%
Relevant substance (HPLC) Impurity D ([7]; month 3): 0.06%
Relevant substance (HPLC) Other single impurity ([7]; month 3): Not detected
Relevant substance (HPLC) Total impurities ([7]; month 3): 0.08%
Relevant substance (HPLC) Impurity A ([7]; month 3, LOQ (0.035%)): <LOQ
Content (HPLC) (calculated as an anhydride) ([7]; month 6): 99.7%
Relevant substance (HPLC) Impurity D ([7]; month 6): 0.06%
Relevant substance (HPLC) Other single impurity ([7]; month 6): Not detected
Relevant substance (HPLC) Total impurities ([7]; month 6): 0.08%
Relevant substance (HPLC) Impurity A ([7]; month 6, LOQ (0.035%)): <LOQ

CC(C)O.[2H]/C(c1nc[nH]c1C(C)(C)C)=c1/[nH]c(=O)/c(=C/c2ccccc2)[nH]c1=O [ε-crystalline form, (3Z,6Z)-3-benzylidene-6-[(5-tert-butyl-1H-imidazol-4-yl)deuteromethylene]piperazine-2,5-dione monoisopropylate]
stability under high-temperature condition [3]: not stable enough
